Assay results: US10457946B2, “Methods for overcoming glucocorticoid resistance and for determining glucocorticoid resistance potential in cancer” (St. Jude Children's Research Hospital, Inc., priority 2013, dated 2019)

Tests used:
Recombinant human CASP1 = molecular target: T1, Recombinant human CASP1 (Homo sapiens, UniProt P29466); assay: CASP1 enzymatic assay: cleavage of glucocorticoid receptor (NR3C1) by recombinant CASP1; type: biochemical; details: for CASP1-induced cleavage of the glucocorticoid receptor (NR3C1): recombinant human CASP1, 30° C., inhibitor 10 μM unless otherwise indicated, FIG. 3A, 3C
T1 construct: purchased Enzo Life Sciences BML-AK701-0001
T1 sequence (P29466 120-297): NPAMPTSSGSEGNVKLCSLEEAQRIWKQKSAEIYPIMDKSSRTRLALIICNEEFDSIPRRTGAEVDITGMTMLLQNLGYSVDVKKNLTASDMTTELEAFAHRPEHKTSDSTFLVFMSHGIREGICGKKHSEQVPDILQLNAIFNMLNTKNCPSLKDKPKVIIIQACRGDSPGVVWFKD
T1 sequence (P29466 317-404): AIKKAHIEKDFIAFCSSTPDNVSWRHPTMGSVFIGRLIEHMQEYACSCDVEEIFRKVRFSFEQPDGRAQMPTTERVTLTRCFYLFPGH
Method: Recombinant human CASP1 (100-200 U, where U=1 pmol/min at 30° C., 200 μM YVAD-pNA (SEQ ID NO: 21)) from a CASP1 assay kit for drug discovery (Enzo Life Sciences, Farmingdale, N.Y., catalog number BML-AK701-0001) was incubated at 30° C. with wild-type or mutated GR in the presence (10 μM unless otherwise indicated) or absence of inhibitors, (Ac-YVAD-CHO (SEQ ID NO: 18), Enzo Life Sciences, Farmingdale, N.Y., catalog number BML-P403-9090), VX765, VRT-043198).
Cells were pelleted by centrifugation, washed once with PBS and lysed with RIPA buffer or caspase-1 assay buffer (Enzo Life Sciences, Farmingdale, N.Y. catalog number KI-111), equal amounts of proteins (1-20 μg) separated by 4-12% Novex Bis-Tris gels (Life Technologies, Grand Island, N.Y.), and then transblotted to PVDF membranes (Life Technologies, Grand Island, N.Y.). Anti-GR (1:1000-1:10,000, BD catalog number 611227), anti-DDK […] (1:1000, Origene catalog number TA50011), anti-Bim (1:1000, Cell Signalling catalog number 2819) or anti-Tubulin (1:1000, Santa Cruz, sc-8035) were used as primary antibodies followed by appropriate secondary HRP-conjugated IgG (1:1000, Dako) and immunocomplexes were visualized by chemiluminescence.

Nalm6 leukemia cell line = assay: MTT drug sensitivity assay in Nalm6 cells with enforced CASP1 expression or empty vector; type: cell-based, human; details: for increase in resistance (LC50) by CASP1 over-expression: Nalm6 cells transduced with CASP1, after activation of NLRP3 inflammasome (LPS/ATP), average
Method: Leukemia cells were isolated at diagnosis from patient bone marrow aspirates. If the leukemia cell percentage from diagnostic bone marrow samples was less than ninety percent, magnetic activated cell sorting (Miltenyl Biotec, Auburn, Calif.) was performed to further enrich for leukemia cells. If red cell contamination was greater than thirty percent, red blood cell lysis was performed. Cells were centrifuged at 300 g for five minutes and resuspended at a concentration of two million cells per milliliter. Eighty microliters of this leukemia cell suspension was then plated into each experimental well of round-bottom 96-well plates. Twenty microliters of decreasing concentrations of prednisolone were added and the plates were incubated for ninety-six hours in a humidified incubator containing 5% CO2 at 37° C. For the final six hours, ten microliters of 5 milligram per milliliter MTT (3-4,5-dimethylthiazol-2,5-diphenyl tetrazolium bromide) was added to each experimental well. Drug resistance assays in cell lines were performed using between 0.25 and 2.5 million cells per milliliter. Assays were developed and performed as for patient sample assays. LC50 values were determined as previously described (Holleman et al., 2004).
Full-length CASP1 (Origene, Rockville, Md., catalog # RC218364; GenBank Accession No. NM_033292) was subcloned into a lentiviral backbone (System Biosciences, Mountain View, Calif., catalog number CD527A-1), in frame with a T2A linked puromycin resistance gene. Lentivirus was produced in 293T cells and the Nalm6 leukemia cell line was transduced. 72 hours post transduction, cells were selected with 2.5 micrograms per milliliter puromycin. Where indicated cells were treated with 10 μg/mL LPS (InvivoGen, San Diego, Calif.) followed 2 hours later by 5 mM ATP (Roche, Pleasanton, Calif.).

[1] = test system: NALM-6 cells overexpressing CASP1; type: cell-based, human; details: CASP1 overexpressing ALL (NALM-6) cells transduced with the named shRNA, +LPS/ATP, MTT, mean±S.E.M., n=4; read-out: LC50 (glucocorticoid sensitivity, prednisolone)
Method: The sensitivity (LC50) of shCASP1 and shNT cells to prednisolone was determined by MTT assays (Panel B). […] Error bars represent S.E.M; n=4 replicate experiments.
NALM-6 cells overexpressing CASP1 co-transfected with either non-targeting scrambled hairpin (shNT; SEQ ID NO: 13) or shRNA hairpins targeting CASP1 (shCASP1; SEQ ID NO: 14) were stably transduced with lentiviral vectors (Addgene plasmid 25890; Sigma-Aldrich, St. Louis, Mo.) containing a wild-type glucocorticoid receptor (SEQ ID NO: 16) or a glucocorticoid receptor in which both CASP1 cleavage sites had been eliminated (double mutagenized GR, DM-GR (SEQ ID NO: 17)).
Cells were centrifuged at 300 g for five minutes and resuspended at a concentration of two million cells per milliliter. Eighty microliters of this leukemia cell suspension was then plated into each experimental well of round-bottom 96-well plates. Twenty microliters of decreasing concentrations of prednisolone were added and the plates were incubated for ninety-six hours in a humidified incubator containing 5% CO2 at 37° C. For the final six hours, ten microliters of 5 milligram per milliliter MTT (3-4,5-dimethylthiazol-2,5-diphenyl tetrazolium bromide) was added to each experimental well. […] LC50 values were determined as previously described (Holleman et al., 2004). […]

| Compound | CASP1-induced cleavage of the glucocorticoid receptor (NR3C1) (Recombinant human CASP1) | increase in resistance (LC50) by CASP1 over-expression (Nalm6 leukemia cell line) | also measured |
| --- | --- | --- | --- |
| CC(C)(C)[C@@H](NC(=O)c1ccc(N)c(Cl)c1)C(=O)N1CCC[C@H]1C(=O)N[C@H](C=O)CC(=O)O [VRT043198, (S)-3-((S)-1-((R)-2-(4-amino-3-chlorobenzamido)-3,3-dimethylbutanoyl)pyrrolidine-2-carboxamido)-4-oxobutanoic acid] | inhibited |  | inhibitory activity on CASP1 cleavage of NR3C1 compared with VX-765 (Recombinant human CASP1; FIG. 3C): higher inhibitory activity |
| CCO[C@H]1OC(=O)C[C@@H]1NC(=O)[C@@H]1CCCN1C(=O)[C@H](NC(=O)c1ccc(N)c(Cl)c1)C(C)(C)C [VX765, (S)-1-((R)-2-(4-amino-3-chlorobenzamido)-3,3-dimethylbutanoyl)-N-((2S,3S)-2-ethoxy-5-oxotetrahydro-furan-3-yl)pyrrolidine-2-carboxamide] | inhibited |  |  |
| C[C@@H]1C[C@H]2[C@@H]3CCC4=CC(=O)C=C[C@]4(C)[C@@]3(F)[C@@H](O)C[C@]2(C)[C@@]1(O)C(=O)CO [dexamethasone] |  | 5.3 fold |  |
| C[C@]12C=CC(=O)C=C1CC[C@@H]1[C@@H]2[C@@H](O)C[C@@]2(C)[C@H]1CC[C@]2(O)C(=O)CO [prednisolone] |  | 16.9 fold | difference in sensitivity on activation of the NLRP3 inflammasome and CASP1 (Nalm6 leukemia cell line; Nalm6 cells transduced with empty vector control virus): no difference |
| shNT: non-targeting scrambled shRNA hairpin, control (CCGGCAACAAGATGAAGAGCACCAACTCGAGTTGGTGCTCTTCATCTTGTTGTTTTT) |  |  | CC50 [1]: 570 ± 423 µM |
